Measured values taken from ChEMBL document CHEMBL4043168, “The design and SAR of a novel series of 2-aminopyridine based LRRK2 inhibitors” (Bioorg Med Chem Lett, 2017).
Converted amounts (≈) assume the structure as drawn.

Experiments:
[1] = molecular target: Leucine-rich repeat serine/threonine-protein kinase 2 (Homo sapiens, UniProt Q5S007, G2019S)
Description: Inhibition of recombinant human LRRK2 (970 to 2527 residues) G2019S mutant expressed in baculovirus preincubated for 30 mins followed by fluorescein-LRRKtide substrate addition after 2 hrs by TR-FRET assay

[2] = molecular target: T1, Leucine-rich repeat serine/threonine-protein kinase 2 (Homo sapiens, UniProt Q5S007)
Description: Inhibition of recombinant human wild type GST-tagged LRRK2 (970 to 2527 residues) preincubated for 30 mins followed by fluorescein-LRRKtide substrate addition after 2 hrs by TR-FRET assay

[3] = molecular target: T1, Leucine-rich repeat serine/threonine-protein kinase 2; experiment: Inhibition of recombinant human wild type GST-tagged LRRK2 (970 to 2527 residues) at 200 uM preincubated for 30 mins followed by fluorescein-LRRKtide substrate addition after 2 hrs by TR-FRET assay relative to control
[4] = test system: Leucine-rich repeat serine/threonine-protein kinase 2 (Homo sapiens), Q5S007 [G2019S]; conditions: at 40 µM
Leucine-rich repeat serine/threonine-protein kinase 2 (Homo sapiens), Q5S007 [G2019S], sequence (Q5S007 whole entry G2019S, the tested form may be a part): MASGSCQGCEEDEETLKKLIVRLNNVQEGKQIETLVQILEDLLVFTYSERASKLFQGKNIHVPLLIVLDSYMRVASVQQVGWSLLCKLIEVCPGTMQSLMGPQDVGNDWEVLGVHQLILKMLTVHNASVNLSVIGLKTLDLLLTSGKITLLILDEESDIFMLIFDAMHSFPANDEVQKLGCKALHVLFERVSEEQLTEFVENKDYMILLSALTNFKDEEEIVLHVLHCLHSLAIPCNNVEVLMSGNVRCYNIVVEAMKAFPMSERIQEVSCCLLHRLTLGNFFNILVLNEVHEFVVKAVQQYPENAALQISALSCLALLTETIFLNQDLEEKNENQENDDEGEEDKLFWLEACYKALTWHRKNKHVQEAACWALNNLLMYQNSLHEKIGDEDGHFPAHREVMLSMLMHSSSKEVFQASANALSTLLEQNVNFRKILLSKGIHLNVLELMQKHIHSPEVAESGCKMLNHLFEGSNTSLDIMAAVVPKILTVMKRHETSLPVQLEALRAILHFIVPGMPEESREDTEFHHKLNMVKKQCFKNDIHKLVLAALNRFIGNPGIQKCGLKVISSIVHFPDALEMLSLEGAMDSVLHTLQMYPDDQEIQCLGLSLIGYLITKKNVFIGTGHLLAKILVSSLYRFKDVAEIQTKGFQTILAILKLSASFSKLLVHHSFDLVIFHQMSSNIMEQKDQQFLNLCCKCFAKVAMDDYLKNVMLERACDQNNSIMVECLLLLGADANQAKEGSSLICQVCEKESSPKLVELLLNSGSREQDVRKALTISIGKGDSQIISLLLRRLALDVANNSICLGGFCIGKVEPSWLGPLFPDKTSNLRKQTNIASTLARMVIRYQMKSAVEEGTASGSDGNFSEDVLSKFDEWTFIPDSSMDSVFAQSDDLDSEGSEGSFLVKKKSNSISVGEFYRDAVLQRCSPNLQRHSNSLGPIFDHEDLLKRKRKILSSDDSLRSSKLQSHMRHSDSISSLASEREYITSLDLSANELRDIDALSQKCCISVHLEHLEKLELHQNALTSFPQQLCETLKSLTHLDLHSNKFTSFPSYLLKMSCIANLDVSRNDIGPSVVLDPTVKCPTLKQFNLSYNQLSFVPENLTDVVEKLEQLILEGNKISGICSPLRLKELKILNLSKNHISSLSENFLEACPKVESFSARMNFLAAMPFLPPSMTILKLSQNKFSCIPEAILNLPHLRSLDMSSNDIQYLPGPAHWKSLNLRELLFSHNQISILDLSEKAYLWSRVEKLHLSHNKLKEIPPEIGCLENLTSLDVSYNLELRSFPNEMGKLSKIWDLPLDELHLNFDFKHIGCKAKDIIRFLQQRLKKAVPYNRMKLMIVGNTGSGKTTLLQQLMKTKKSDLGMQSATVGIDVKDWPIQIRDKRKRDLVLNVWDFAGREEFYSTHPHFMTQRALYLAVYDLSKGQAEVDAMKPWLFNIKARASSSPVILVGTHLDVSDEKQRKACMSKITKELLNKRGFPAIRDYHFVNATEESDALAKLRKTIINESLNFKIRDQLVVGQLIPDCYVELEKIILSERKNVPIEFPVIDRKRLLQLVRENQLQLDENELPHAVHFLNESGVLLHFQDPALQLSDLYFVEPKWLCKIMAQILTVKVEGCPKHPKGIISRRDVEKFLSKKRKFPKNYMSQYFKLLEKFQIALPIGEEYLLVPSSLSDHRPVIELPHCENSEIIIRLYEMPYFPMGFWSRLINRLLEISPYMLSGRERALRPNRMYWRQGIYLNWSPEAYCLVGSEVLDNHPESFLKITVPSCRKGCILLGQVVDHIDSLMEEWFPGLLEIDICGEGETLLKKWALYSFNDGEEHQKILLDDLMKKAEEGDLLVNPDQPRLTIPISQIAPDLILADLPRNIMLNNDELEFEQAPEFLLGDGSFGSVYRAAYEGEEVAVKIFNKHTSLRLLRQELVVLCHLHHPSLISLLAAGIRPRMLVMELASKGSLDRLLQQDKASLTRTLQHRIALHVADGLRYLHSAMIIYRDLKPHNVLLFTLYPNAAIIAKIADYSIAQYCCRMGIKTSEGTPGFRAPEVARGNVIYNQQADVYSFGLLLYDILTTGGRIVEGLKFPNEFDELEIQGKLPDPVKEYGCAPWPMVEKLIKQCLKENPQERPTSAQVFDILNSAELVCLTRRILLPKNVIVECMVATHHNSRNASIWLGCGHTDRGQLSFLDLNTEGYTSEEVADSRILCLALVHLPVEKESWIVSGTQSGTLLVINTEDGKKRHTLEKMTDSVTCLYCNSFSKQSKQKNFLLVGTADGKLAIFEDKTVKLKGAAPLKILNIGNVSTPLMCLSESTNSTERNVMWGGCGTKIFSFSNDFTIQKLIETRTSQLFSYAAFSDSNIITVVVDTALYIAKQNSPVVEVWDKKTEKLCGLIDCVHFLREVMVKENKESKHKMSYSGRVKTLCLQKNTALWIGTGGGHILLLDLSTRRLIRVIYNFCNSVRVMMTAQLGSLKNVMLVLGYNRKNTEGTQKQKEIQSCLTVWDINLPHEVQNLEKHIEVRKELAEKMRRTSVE
Description: Inhibition of recombinant human LRRK2 (970 to 2527 residues) G2019S mutant expressed in baculovirus at 40 uM preincubated for 30 mins followed by fluorescein-LRRKtide substrate addition after 2 hrs by TR-FRET assay

[5] = molecular target: T1, Leucine-rich repeat serine/threonine-protein kinase 2; experiment: Inhibition of recombinant human wild type GST-tagged LRRK2 (970 to 2527 residues) at 30 uM preincubated for 30 mins followed by fluorescein-LRRKtide substrate addition after 2 hrs by TR-FRET assay relative to control
[6] = molecular target: T1, Leucine-rich repeat serine/threonine-protein kinase 2; experiment: Inhibition of recombinant human wild type GST-tagged LRRK2 (970 to 2527 residues) at 22 uM preincubated for 30 mins followed by fluorescein-LRRKtide substrate addition after 2 hrs by TR-FRET assay relative to control
[7] = Intrinsic clearance in human liver microsomes; format: ADME, microsome; conditions: read-out: CLH (converted)
[8] = Apparent permeability in MDCK cells; format: ADME, cell-based, Canis lupus familiaris; conditions: dog
[9] = Aqueous solubility of the compound in pH 7.4; format: physicochemical; conditions: aqueous medium
[10] = Efflux ratio of apparent permeability from basolateral to apical over apical to basolateral side in MDCK cells; format: ADME, cell-based, Canis lupus familiaris; conditions: dog
[11] = Intrinsic clearance in rat liver microsomes; format: ADME, microsome; conditions: read-out: CLH (converted)
[12] = test system: Leucine-rich repeat serine/threonine-protein kinase 2 (Homo sapiens), Q5S007 [G2019S]; conditions: at 200 µM
Description: Inhibition of recombinant human LRRK2 (970 to 2527 residues) G2019S mutant expressed in baculovirus at 200 uM preincubated for 30 mins followed by fluorescein-LRRKtide substrate addition after 2 hrs by TR-FRET assay

[13] = molecular target: T1, Leucine-rich repeat serine/threonine-protein kinase 2; experiment: Inhibition of recombinant human wild type GST-tagged LRRK2 (970 to 2527 residues) at 66.7 uM preincubated for 30 mins followed by fluorescein-LRRKtide substrate addition after 2 hrs by TR-FRET assay relative to control

Leucine-rich repeat serine/threonine-protein kinase 2 (Homo sapiens, UniProt Q5S007, G2019S), sequence (Q5S007 whole entry G2019S): as the sequence (Q5S007 whole entry G2019S, the tested form may be a part) above
T1 sequence (Q5S007 whole entry, the tested form may be a part): as the sequence (Q5S007 whole entry G2019S, the tested form may be a part) above, with S2019G counted along it

SMILES	IC50 [1]	IC50 [2]	also measured
Cc1nnc(-c2cc(-c3ccc4[nH]ccc4c3)cnc2N)o1	3.6 µM		
Cc1ccc(-c2cnc(N)c(-c3cnc(C)o3)c2)cc1	11 µM	24 µM	
Cn1ccc(-c2cc(-c3ccc4[nH]ccc4c3)cnc2N)n1			inhibition [3]: 48%; inhibition [4]: 65%
Cc1ccc(-c2cnc(N)c(-c3cn(C)cn3)c2)cc1	57 µM		inhibition [3]: 60%
Cc1ccc(-c2cnc(N)c(-n3cc(C)nn3)c2)cc1	9.1 µM		inhibition [5]: 70%
CCNc1nc(Nc2cc(F)c(C(=O)N3CCOCC3)cc2OC)ncc1C(F)(F)F	0.046 µM	0.097 µM	
CCc1nnc(-c2cc(-c3ccc4[nH]ccc4c3)cnc2N)o1	2.9 µM		inhibition [6]: 77%
Cc1ccc(-c2cnc(N)c(-c3cnn(C)c3)c2)cc1	6.7 µM	16 µM	CLint scaled [7]: 100 mL/min/kg; Papp [8]: 16.9 ×10⁻⁶ cm/s; solubility [9]: 11 µg/mL (≈ 41.6 µM); efflux ratio [10]: 0.55; CLint scaled [11]: 283 mL/min/kg
Cc1ccc(-c2cnc(N)c(-c3cnn(C)c3C)c2)cc1			inhibition [3]: 49%; inhibition [12]: 62%
Cc1ccc(-c2cnc(N)c(-c3cn[nH]c3)c2)cc1	13 µM		inhibition [13]: 72%
Cc1ccc(-c2cnc(N)c(-c3nnc(C4CC4)o3)c2)cc1	2.2 µM	2.3 µM	
Nc1ncc(-c2ccc3[nH]ccc3c2)cc1-c1nnc(C2CC2)o1	1.6 µM	1.3 µM	
CCn1cc(-c2cc(-c3ccc(C)cc3)cnc2N)cn1	12 µM	12 µM	
Cn1cc(-c2cc(-c3ccc4[nH]ccc4c3)cnc2N)cn1	13 µM		inhibition [3]: 75%
Cn1cc(-c2cc(-c3ccc4c(ccn4C)c3)cnc2N)cn1	5.8 µM		inhibition [5]: 64%
